Experimental data reported in patent US20200147039A1, “COMPOUNDS USEFUL IN INHIBITING HUMAN TREFOIL FACTOR 3” (NATIONAL UNIVERSITY OF SINGAPORE, priority 2017, published 2020).

test system: MCF-7; assay: AlamarBlue cell viability assay, MCF7; format: cell-based, human; settings: Homo sapiens, MCF7, MCF-7, AlamarBlue cell viability (Table 8)
Description: (A) Inhibitory concentration 50% (IC50) values for compound 43 in the MC cell lines are tabulated, using an AlamarBlue™ cell viability assay as previously described in Pandey V et al., Breast Cancer Res. 2014; 16(5):429. (B) Measured dose-dependent manner effect of compound 43 on the viability of MC cells (left-side, TFF3-high and right, TFF3-low) using AlamarBlue™ viability assay as previously described (ibid). (C) Apoptotic cell death of mammary carcinoma cell lines measured after treatment with 10 μM compound 43 using flow cytometry analysis at 24 hour as described previously in Keerthy H K et al., PloS one. 2014; 9(9):e107118. Annexin V-FITC staining is indicated on the X-axis and PI staining on the Y-axis. […] Acquisition of Annexin V and PI data were represented as percentage (%) in each quadrant. Note: CM, conditioned media; MCF10A and MCF12A, non-transformed immortalized-mammary epithelial cell line. Points are mean of triplicate experiments; bars, ±SD. Statistical significance was assessed by using an unpaired two-tailed Student's t test (P<0.05 was considered as significant) using GraphPad Prism5. Columns are mean of triplicate experiments; bars, ±SD. **P<0.001, *P<0.05.
The human immortalized mammary epithelial cell lines, MCF10A, and MCF12A; and immortalized hepatocellular epithelial cell line, LO2 were obtained from the American Type Culture Collection (ATCC, Rockville, Md.) and were cultured as per ATCC propagation instructions. MC cell lines, MCF7, T47D, BT474, BT20, MDA-MB-361, MDA-MB-436, MDA-MB-468, and MDA-MB-231; endometrial carcinoma cell lines, Ishikawa, ECC1, RL95-2 and AN3; hepatocellular carcinoma cell lines, Hep3B, H2P, and H2M; colon carcinoma cell lines, DLD-1, and Caco-2; and prostate carcinoma cell lines, PC3, LNCaP, and DU145 were obtained from the American Type Culture Collection (ATCC, Rockville, Md.). Pancreatic carcinoma cell lines, AsPC-1 and BxPC-3; Lung carcinoma cell lines, HCC-827, NCI-H1975, HCC-4006, PC-14, and NCI-H1299; and Thyroid carcinoma cell lines HTH83, CAL62, T238, and OGK-M were obtained from Prof. H. Phillip Koeffler's laboratory at The Cancer Science Institute of Singapore, National University of Singapore (NUS). Gastric carcinoma cell lines, AGS, MKN-28, MKN-45, and A2-528 were obtained from Prof. Yoshiaki Ito's laboratory at The Cancer Science Institute of Singapore, NUS. All cell lines were cultured as per ATCC propagation instructions.
The above synthesised compounds were initially evaluated against a range of carcinoma cells using an AlamarBlue™ cell viability assay (using the protocol discussed above). The tested compounds were generally efficacious at reducing the viability of various carcinoma cells compared to vehicle (DMSO) treated cells. Table 8 provides selected IC50 data for certain of the compounds synthesised herein against MCF-7.
In table 9 IC50 values of compound 43 compound library in several cancer cell lines are tabulated, using an AlamarBlue® cell viability assay as previously described in Pandey V et al., Breast Cancer Res. 2014; 16(5):429. Statistical analysis was assessed by using GraphPad Prism5. Note: NV, no value.

Compound | IC50 [µM]
N#CC1=C(N)Oc2c(c(=O)oc3ccccc23)C1c1ccc(-c2ccccc2)cc1 (stereo not drawn) [Compound 1] | 22.6
COc1cccc(-c2ccc(C3C(C#N)=C(N)Oc4c3c(=O)oc3ccccc43)cc2)c1 (stereo not drawn) [Compound 13] | 17.8
N#CC1=C(N)Oc2c(c(=O)oc3ccccc23)C1c1ccc(-c2ccc(Cl)c(C(F)(F)F)c2)cc1 (stereo not drawn) [Compound 25] | 18.4
N#CC1=C(N)Oc2c(c(=O)oc3ccccc23)C1c1ccc(-c2cccnc2)cc1 (stereo not drawn) [Compound 31] | 5.21
COc1ccc(C2C(C#N)=C(N)Oc3c2c(=O)oc2ccccc32)cc1-c1ccccc1 (stereo not drawn) [Compound 49] | 28.2
COc1ccc(C2C(C#N)=C(N)Oc3c2c(=O)oc2ccccc32)cc1-c1ccccc1C (stereo not drawn) [Compound 55] | 18.6
COc1cccc(-c2cc(C3C(C#N)=C(N)Oc4c3c(=O)oc3ccccc43)ccc2OC)c1 (stereo not drawn) [Compound 61] | 8.94
COc1ccc(C2C(C#N)=C(N)Oc3c2c(=O)oc2ccccc32)cc1-c1ccc(Cl)c(C(F)(F)F)c1 (stereo not drawn) [Compound 73] | 14.8
COc1ccc(C2C(C#N)=C(N)Oc3c2c(=O)oc2ccccc32)cc1-c1cccnc1 (stereo not drawn) [Compound 79] | 9.15
COc1ccc(C2C(C#N)=C(N)Oc3c2c(=O)oc2ccccc32)cc1-c1cnc(F)c(C)c1 (stereo not drawn) [Compound 91] | 11.8
Cc1cc(-c2ccc(C3C(C#N)=C(NC(=O)Cc4cccc(Cl)c4)Oc4c3c(=O)oc3ccccc43)cc2)cnc1F (stereo not drawn) [Compound 98] | 58.3
COc1ccc(CC(=O)NC2=C(C#N)C(c3ccc(-c4cnc(F)c(C)c4)cc3)c3c(c4ccccc4oc3=O)O2)cc1OC (stereo not drawn) [Compound 99] | 33.4
Cc1cc(-c2ccc(C3C(C#N)=C(NC(=O)c4cc(Cl)ccc4Cl)Oc4c3c(=O)oc3ccccc43)cc2)cnc1F (stereo not drawn) [Compound 100] | 177
Cc1cc(-c2ccc(C3C(C#N)=C(NC(=O)c4cccn4C)Oc4c3c(=O)oc3ccccc43)cc2)cnc1F (stereo not drawn) [Compound 101] | 40.4
COc1ccc(C2C(C#N)=C(NC(=O)c3ccc(C(F)(F)F)cc3)Oc3c2c(=O)oc2ccccc32)cc1-c1cnc(F)c(C)c1 (stereo not drawn) [Compound 102] | 33
COc1ccc(C2C(C#N)=C(NC(=O)Cc3cccc(Cl)c3)Oc3c2c(=O)oc2ccccc32)cc1-c1cnc(F)c(C)c1 (stereo not drawn) [Compound 103] | 40
COc1ccc(CC(=O)NC2=C(C#N)C(c3ccc(OC)c(-c4cnc(F)c(C)c4)c3)c3c(c4ccccc4oc3=O)O2)cc1OC (stereo not drawn) [Compound 104] | 8.96
COc1ccc(C2C(C#N)=C(NC(=O)c3cc(Cl)ccc3Cl)Oc3c2c(=O)oc2ccccc32)cc1-c1cnc(F)c(C)c1 (stereo not drawn) [Compound 105] | 23.7
COc1ccc(C2C(C#N)=C(NC(=O)c3cccn3C)Oc3c2c(=O)oc2ccccc32)cc1-c1cnc(F)c(C)c1 (stereo not drawn) [Compound 106] | 55

Compound | IC50 [µM]
Cc1cc(-c2ccc(C3C(C#N)=C(NS(=O)(=O)c4ccccc4)Oc4c3c(=O)oc3ccccc43)cc2)cnc1F (stereo not drawn) [Compound 107] | 19.5
Cc1cc(-c2ccc(C3C(C#N)=C(NS(=O)(=O)c4ccc([N+](=O)[O-])cc4)Oc4c3c(=O)oc3ccccc43)cc2)cnc1F (stereo not drawn) [Compound 109] | 34.9
COc1ccc(C2C(C#N)=C(NS(=O)(=O)c3ccccc3)Oc3c2c(=O)oc2ccccc32)cc1-c1cnc(F)c(C)c1 (stereo not drawn) [Compound 110] | 67.4
COc1ccc(S(=O)(=O)NC2=C(C#N)C(c3ccc(OC)c(-c4cnc(F)c(C)c4)c3)c3c(c4ccccc4oc3=O)O2)cc1 (stereo not drawn) [Compound 111] | 39.3
COc1ccc(C2C(C#N)=C(NS(=O)(=O)c3ccc([N+](=O)[O-])cc3)Oc3c2c(=O)oc2ccccc32)cc1-c1cnc(F)c(C)c1 (stereo not drawn) [Compound 112] | 101
Cc1cc(-c2ccc(C3C(c4nnn[nH]4)=C(N)Oc4c3c(=O)oc3ccccc43)cc2)cnc1F (stereo not drawn) [Compound 113] | 33.1
COc1ccc(C2C(c3nnn[nH]3)=C(N)Oc3c2c(=O)oc2ccccc32)cc1-c1cnc(F)c(C)c1 (stereo not drawn) [Compound 114] | 39.8
N#CC1=C(N)Oc2c(c(=O)oc3ccccc23)C1c1ccc(-c2ccncc2)cc1 (stereo not drawn) [Compound 121] | 15.8
Cc1cc(-c2ccc(C3C(C#N)=C(N)Oc4c3c(=O)oc3ccccc43)cc2)cnc1Cl (stereo not drawn) [Compound 122] | 73.9
N#CC1=C(N)Oc2c(c(=O)oc3ccccc23)C1c1ccc(-c2ccc(C(F)(F)F)cc2)cc1 (stereo not drawn) [Compound 123] | 2.54
Cc1ccc(-c2ccc(C3C(C#N)=C(N)Oc4c3c(=O)oc3ccccc43)cc2)cn1 (stereo not drawn) [Compound 124] | 43.8
N#CC1=C(N)Oc2c(c(=O)oc3ccccc23)C1c1ccc(-c2cccc3ccccc23)cc1 (stereo not drawn) [Compound 125] | 8.23
N#CC1=C(N)Oc2c(c(=O)oc3ccccc23)C1c1ccc(-c2ccc(Cl)cc2)cc1 (stereo not drawn) [Compound 127] | 3.25
N#CC1=C(N)Oc2c(c(=O)oc3ccccc23)C1c1ccc(-c2cncnc2)cc1 (stereo not drawn) [Compound 128] | 200
N#CC1=C(N)Oc2c(c(=O)oc3ccccc23)C1c1ccc(-c2cn[nH]c2)cc1 (stereo not drawn) [Compound 129] | 263
Cc1c(-c2ccc(C3C(C#N)=C(N)Oc4c3c(=O)oc3ccccc43)c(F)c2)ccnc1F (stereo not drawn) [Compound 130] | 7.93
N#CC1=C(N)Oc2c(c(=O)oc3ccccc23)C1c1ccc(-c2ccncc2)cc1F (stereo not drawn) [Compound 131] | 2.89
Cc1cc(-c2ccc(C3C(C#N)=C(N)Oc4c3c(=O)oc3ccccc43)c(F)c2)cnc1Cl (stereo not drawn) [Compound 132] | 1.21
N#CC1=C(N)Oc2c(c(=O)oc3ccccc23)C1c1ccc(-c2cccnc2)cc1F (stereo not drawn) [Compound 133] | 3.26

Compound | IC50 [µM]
N#CC1=C(N)Oc2c(c(=O)oc3ccccc23)C1c1ccc(-c2ccc(C(F)(F)F)cc2)cc1F (stereo not drawn) [Compound 134] | 1.84
Cc1ccc(-c2ccc(C3C(C#N)=C(N)Oc4c3c(=O)oc3ccccc43)c(F)c2)cn1 (stereo not drawn) [Compound 135] | 3.26
N#CC1=C(N)Oc2c(c(=O)oc3ccccc23)C1c1ccc(-c2ccc(C=O)o2)cc1F (stereo not drawn) [Compound 136] | 1.67
N#CC1=C(N)Oc2c(c(=O)oc3ccccc23)C1c1ccc(-c2ccc(Cl)cc2)cc1F (stereo not drawn) [Compound 137] | 3.95
Cc1ccccc1-c1ccc(C2C(C#N)=C(N)Oc3c2c(=O)oc2ccccc32)c(F)c1 (stereo not drawn) [Compound 138] | 0.751
N#CC1=C(N)Oc2c(c(=O)oc3ccccc23)C1c1ccc(-c2cncnc2)cc1F (stereo not drawn) [Compound 139] | 4.23
COc1cccc(-c2ccc(C3C(C#N)=C(N)Oc4c3c(=O)oc3ccccc43)c(F)c2)c1 (stereo not drawn) [Compound 140] | 1.07
N#CC1=C(N)Oc2c(c(=O)oc3ccccc23)C1c1ccc(-c2cccc3ccccc23)cc1F (stereo not drawn) [Compound 141] | 1.7
N#CC1=C(N)Oc2c(c(=O)oc3ccccc23)C1c1ccc(-c2cn[nH]c2)cc1F (stereo not drawn) [Compound 142] | 15.5
COc1ccc2c3c(c(=O)oc2c1)C(c1ccc(-c2cccnc2)cc1)C(C#N)=C(N)O3 (stereo not drawn) [Compound 143] | 0.685
N#CC1=C(N)Oc2c(c(=O)oc3ccc(F)cc23)C1c1ccc(-c2cccnc2)cc1 (stereo not drawn) [Compound 144] | 6.85
N#CC1=C(N)Oc2c(c(=O)oc3ccc(F)cc23)C1c1ccc(-c2ccncc2)cc1 (stereo not drawn) [Compound 145] | 2.81
COc1ccc2c3c(c(=O)oc2c1)C(c1ccc(-c2ccncc2)cc1)C(C#N)=C(N)O3 (stereo not drawn) [Compound 146] | 7.04
Cc1cc(-c2ccc(C3C(C#N)=C(N)Oc4c3c(=O)oc3ccc(F)cc43)cc2)cnc1Cl (stereo not drawn) [Compound 147] | 0.526
COc1ccc2c3c(c(=O)oc2c1)C(c1ccc(-c2cnc(Cl)c(C)c2)cc1)C(C#N)=C(N)O3 (stereo not drawn) [Compound 148] | 7.38
Cc1c(-c2ccc(C3C(C#N)=C(N)Oc4c3c(=O)oc3ccc(F)cc43)cc2)ccnc1F (stereo not drawn) [Compound 149] | 43.3
COc1ccc2c3c(c(=O)oc2c1)C(c1ccc(-c2ccnc(F)c2C)cc1)C(C#N)=C(N)O3 (stereo not drawn) [Compound 150] | 1.12
COc1ccc2c3c(c(=O)oc2c1)C(c1ccc(-c2ccc(C(F)(F)F)cc2)cc1)C(C#N)=C(N)O3 (stereo not drawn) [Compound 151] | 2.45
Cc1ccc(-c2ccc(C3C(C#N)=C(N)Oc4c3c(=O)oc3ccc(F)cc43)cc2)cn1 (stereo not drawn) [Compound 152] | 77.6
